Where two headings read alike, the source gives them in different places.
Target: T1, human wildtype CFTR (Homo sapiens, UniProt P13569)
T1 construct: expressed in transfected cells; host or cells: Fischer rat thyroid (FRT) cells
Assay: Fluorescence platereader assay of CFTR-mediated iodide influx (YFP quenching) in FRT cells
Type: cell-based
Conditions: for inhibition at 5 µM / inhibition at 25 µM: FRT; for IC50: apparent IC50 from concentration-inhibition data, fluorescence platereader assay
Description: A. Cell lines and compounds—Fischer rat thyroid (FRT) cells co-expressing human wildtype CFTR and the halide indicator YFP-H148Q/1152L were generated as described (see, e.g., Ma et al., J. Clin. Invest. 110:1651-1658 (2002)). Cells were plated in 96-well black-walled microplates (Corning Costar) at a density of 20,000 cells per well in Coon's modified F12 medium supplemented with 5% fetal calf serum, 2 mM L-glutamine, 100 U/mL penicillin, and 100 μg/ml streptomycin. Assays were performed at 48 h after plating the cells when the cells were just confluent. For some experiments, measurements were made using T84 human intestinal epithelial cells and for other experiments, measurements were obtained using primary cultures of human bronchial epithelial cells, which were obtained and grown essentially as previously described (see, e.g., 3 and 27).
B. Compound Screening—Assays were performed using an automated screening platform (Beckman) equipped with FLUOStar fluorescence platereaders (BMG Lab Technologies, Offenburg, Germany) as described (see Ma et al., supra). Each well of a 96-well plate containing FRT cells was washed 3 times in PBS (300 μL/wash), leaving 50 μL PBS. […] After 15 min, 96-well plates were transferred to a plate reader for fluorescence assay. Each well was assayed individually for CFTR-mediated iodide influx by recording fluorescence continuously (200 ms per point) for 2 s (baseline) and then for 10 s after rapid addition of 160 μL of isosmolar PBS in which 137 mM chloride was replaced by iodide. The initial rate of iodide influx was computed from fluorescence data by non-linear regression.
Collections of synthetic and natural compounds were screened according to the screening procedures described in Example 2. A cell-based fluorescence assay was used in which CFTR inhibitors were identified by reduced iodide influx in FRT cells co-expressing human CFTR and a YFP halide sensor. CFTR was maximally activated by a mixture of agonists having different activating mechanisms. Inhibition of iodide influx was observed as reduced YFP fluorescence quenching in response to rapid iodide addition to each well of 96-well plates. […]

[1] = Table 2, screening, 5 μM, read-out: % Inhibition at 5 μM
[2] = Table 2, screening, 25 μM, read-out: % Inhibition at 25 μM
[3] = read-out: % inhibition at 25/5 μM (5 μM value), Table 1, 5 μM compound
[4] = read-out: % inhibition at 25/5 μM (25 μM value), Table 1, 25 μM compound

T1 sequence (P13569 whole entry): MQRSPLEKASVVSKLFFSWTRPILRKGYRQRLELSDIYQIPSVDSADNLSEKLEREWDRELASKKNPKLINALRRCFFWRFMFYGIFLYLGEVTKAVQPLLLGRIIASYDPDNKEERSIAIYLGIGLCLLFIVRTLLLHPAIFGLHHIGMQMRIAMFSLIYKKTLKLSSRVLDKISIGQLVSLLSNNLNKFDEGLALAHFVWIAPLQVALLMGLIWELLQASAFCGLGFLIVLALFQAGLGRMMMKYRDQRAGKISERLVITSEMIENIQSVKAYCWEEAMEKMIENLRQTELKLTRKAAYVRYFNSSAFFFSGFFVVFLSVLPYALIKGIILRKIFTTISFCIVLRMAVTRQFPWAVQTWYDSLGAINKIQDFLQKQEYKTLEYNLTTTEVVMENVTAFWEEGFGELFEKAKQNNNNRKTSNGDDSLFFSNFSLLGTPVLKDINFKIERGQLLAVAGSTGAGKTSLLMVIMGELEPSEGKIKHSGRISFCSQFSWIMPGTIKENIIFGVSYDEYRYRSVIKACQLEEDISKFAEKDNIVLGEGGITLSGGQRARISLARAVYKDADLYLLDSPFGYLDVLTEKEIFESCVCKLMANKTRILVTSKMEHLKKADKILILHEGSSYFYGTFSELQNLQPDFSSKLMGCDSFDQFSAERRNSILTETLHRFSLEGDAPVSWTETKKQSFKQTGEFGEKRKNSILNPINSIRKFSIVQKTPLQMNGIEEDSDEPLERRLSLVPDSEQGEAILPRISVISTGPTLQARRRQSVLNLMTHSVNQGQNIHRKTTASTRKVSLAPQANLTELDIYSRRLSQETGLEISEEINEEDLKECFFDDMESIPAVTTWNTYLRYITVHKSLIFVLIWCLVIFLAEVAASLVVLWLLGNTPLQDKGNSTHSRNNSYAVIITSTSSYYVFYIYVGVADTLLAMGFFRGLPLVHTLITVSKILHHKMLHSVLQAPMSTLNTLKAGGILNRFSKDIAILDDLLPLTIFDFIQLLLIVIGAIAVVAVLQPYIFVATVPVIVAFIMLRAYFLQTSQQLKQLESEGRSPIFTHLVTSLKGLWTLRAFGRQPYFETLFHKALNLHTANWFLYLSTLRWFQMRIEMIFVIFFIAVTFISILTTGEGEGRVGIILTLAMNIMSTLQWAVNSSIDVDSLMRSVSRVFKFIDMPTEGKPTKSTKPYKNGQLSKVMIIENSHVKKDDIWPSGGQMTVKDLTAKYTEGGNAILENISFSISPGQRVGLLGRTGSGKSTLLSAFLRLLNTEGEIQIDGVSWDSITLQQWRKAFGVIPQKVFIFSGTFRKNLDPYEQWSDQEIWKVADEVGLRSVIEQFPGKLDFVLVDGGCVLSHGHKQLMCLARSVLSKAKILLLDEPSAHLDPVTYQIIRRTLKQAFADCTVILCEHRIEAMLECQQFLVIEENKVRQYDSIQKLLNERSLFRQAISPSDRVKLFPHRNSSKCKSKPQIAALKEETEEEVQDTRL

`Cc1ccccc1-c1c2c(=O)n(C)c(=O)n(C)c2c2n1-c1ccccc1NC2c1ccc(O)c(O)c1` (centres unmarked) was tested, and the inhibition at 5 µM [1] was less than 10% and the inhibition at 25 µM [2] was 38%.
In the case of `COc1cc(O)ccc1C1Nc2ccccc2-n2c(-c3ccccc3F)c3c(=O)n(C)c(=O)n(C)c3c21` (centres unmarked), the inhibition at 5 µM [1] is reported as less than 10% and the inhibition at 25 µM [2] is reported as 41%.
For `Cn1c(=O)c2c(-c3ccccc3)n3c(c2n(C)c1=O)C(c1cccc(O)c1O)Nc1ccccc1-3` (centres unmarked), the inhibition at 5 µM [1] was less than 10% and the inhibition at 25 µM [2] was 38%.
Molecule `COc1ccc(-c2c3c(=O)n(C)c(=O)n(C)c3c3n2-c2ccccc2NC3c2cccc(F)c2)cc1` (centres unmarked) has an inhibition at 5 µM [1] of less than 10% and an inhibition at 25 µM [2] of 37%.
`Cn1c(=O)c2c(-c3ccccc3F)n3c(c2n(C)c1=O)C(c1ccc(O)cc1O)Nc1ccccc1-3` (centres unmarked) was tested, and the inhibition at 5 µM [1] was less than 10% and the inhibition at 25 µM [2] was 36%.
In the case of `COc1ccc(-c2c3c(=O)n(C)c(=O)n(C)c3c3n2-c2ccccc2NC3c2cccc(C)c2)cc1` (centres unmarked), the inhibition at 5 µM [1] is reported as less than 10% and the inhibition at 25 µM [2] is reported as 35%.
In the case of `COc1cccc(C2Nc3ccccc3-n3c(-c4cccc(C)c4)c4c(=O)n(C)c(=O)n(C)c4c32)c1O` (centres unmarked), the inhibition at 5 µM [1] is reported as less than 10% and the inhibition at 25 µM [2] is reported as 31%.
`Cc1ccccc1-c1c2c(=O)n(C)c(=O)n(C)c2c2n1-c1ccccc1NC2c1cccc(O)c1O` (centres unmarked) gave an inhibition at 5 µM [1] of less than 10% and an inhibition at 25 µM [2] of 30%.
With `COc1ccc(C2Nc3ccccc3-n3c(-c4ccc(Cl)cc4)c4c(=O)n(C)c(=O)n(C)c4c32)cc1` (centres unmarked) the inhibition at 5 µM [1] was less than 10% and the inhibition at 25 µM [2] was 31%.
`Cc1cccc(-c2c3c(=O)n(C)c(=O)n(C)c3c3n2-c2ccccc2NC3c2ccc(C)o2)c1` (centres unmarked) [PPQ-101, 7,9-Dimethyl-11-(3-methylphenyl)-6-(5-methylfuran-2-yl)-5,6-dihydro-pyrimido[4′,5′-3,4]pyrrolo[1,2-a]quinoxaline-8,10-(7H,9H)-dione] was tested, and the inhibition at 5 µM [1] was greater than 95%, the inhibition at 25 µM [2] was greater than 95% and the IC50 was 700 nM.
With `Cc1ccc(C(=O)Nc2ccccc2-n2cc3c(c2-c2ccccc2)c(=O)n(C)c(=O)n3C)o1` [PPQ-102b, N-(2-(1,3-dimethyl-2,4-dioxo-5-phenyl-3,4-dihydro-1H-pyrrolo[3,4-d]pyrimidin-6(2H)-yl)phenyl)-5-methylfuran-2-carboxamide] the “CFTR inhibition activity” value (structure-activity analysis) was “abolished CFTR inhibition activity”.
With `Cc1ccc(C2Nc3ccccc3-n3c(-c4ccccc4C)c4c(=O)n(C)c(=O)n(C)c4c32)o1` (centres unmarked) [PPQ-103, 7,9-Dimethyl-11-(2-methylphenyl)-6-(5-methylfuran-2-yl)-5,6-dihydro-pyrimido[4′,5′-3,4]pyrrolo[1,2-a]quinoxaline-8,10-(7H,9H)-dione] the inhibition at 5 µM [1] was 63%, the inhibition at 25 µM [2] was greater than 95% and the IC50 was 800 nM.
In the case of `Cc1ccc(C2Nc3cc(C)c(C)cc3-n3c(-c4ccccc4)c4c(=O)n(C)c(=O)n(C)c4c32)o1` (centres unmarked) [PPQ-104, 2,3,7,9-Tetramethyl-11-phenyl-6-(5-methylfuran-2-yl)-5,6-dihydro-pyrimido[4′,5′-3,4]pyrrolo[1,2-a]quinoxaline-8,10-(7H,9H)-dione], the inhibition at 5 µM [3] is reported as 84%, the inhibition at 25 µM [4] is reported as 90% and the inhibition at 5 µM [1] is reported as 84%. It also gave an inhibition at 25 µM [2] of 90% and an IC50 of 800 nM.
`Cc1ccc(C2Nc3cc(C)c(C)cc3-n3c(-c4ccccc4F)c4c(=O)n(C)c(=O)n(C)c4c32)o1` (centres unmarked) [PPQ-105, 2,3,7,9-Tetramethyl-11-(2-fluorophenyl)-6-(5-methylfuran-2-yl)-5,6-dihydro-pyrimido[4′,5′-3,4]pyrrolo[1,2-a]quinoxaline-8,10-(7H,9H)-dione] gave an inhibition at 5 µM [1] of 78%, an inhibition at 25 µM [2] of 78% and an IC50 of 1500 nM.
With `Cc1cccc(-c2c3c(=O)n(C)c(=O)n(C)c3c3n2-c2ccccc2NC3c2ccco2)c1` (centres unmarked) [PPQ-106, 7,9-Dimethyl-11-(3-methylphenyl)-6-(furan-2-yl)-5,6-dihydro-pyrimido[4′,5′-3,4]pyrrolo[1,2-a]quinoxaline-8,10-(7H,9H)-dione] the inhibition at 5 µM [1] was 49% and the inhibition at 25 µM [2] was 96%.
Work on `Cc1cc2c(cc1C)-n1c(-c3ccccc3)c3c(=O)n(C)c(=O)n(C)c3c1C(c1ccco1)N2` (centres unmarked) [PPQ-107, 2,3,7,9-Tetramethyl-11-phenyl-6-(furan-2-yl)-5,6-dihydro-pyrimido[4′,5′-3,4]pyrrolo[1,2-a]quinoxaline-8,10-(7H,9H)-dione] yielded an inhibition at 5 µM [1] of 24% and an inhibition at 25 µM [2] of 87%.
Work on `Cc1ccccc1-c1c2c(=O)n(C)c(=O)n(C)c2c2n1-c1ccccc1NC2c1ccco1` (centres unmarked) [PPQ-108, 7,9-Dimethyl-11-(2-methylphenyl)-6-(furan-2-yl)-5,6-dihydro-pyrimido[4′,5′-3,4]pyrrolo[1,2-a]quinoxaline-8,10-(7H,9H)-dione] yielded an inhibition at 5 µM [1] of 18% and an inhibition at 25 µM [2] of 70%.
`COc1ccc(-c2c3c(=O)n(C)c(=O)n(C)c3c3n2-c2ccccc2NC3c2ccc(C)o2)cc1` (centres unmarked) [PPQ-109, 7,9-Dimethyl-11-(4-methoxyphenyl)-6-(5-methylfuran-2-yl)-5,6-dihydro-pyrimido[4′,5′-3,4]pyrrolo[1,2-a]quinoxaline-8,10-(7H,9H)-dione] was tested, and the inhibition at 5 µM [1] was 12% and the inhibition at 25 µM [2] was 68%.
`Cc1ccc(-c2c3c(=O)n(C)c(=O)n(C)c3c3n2-c2ccccc2NC3c2ccc(C)o2)cc1` (centres unmarked) [PPQ-110, 7,9-Dimethyl-11-(4-methylphenyl)-6-(5-methylfuran-2-yl)-5,6-dihydro-pyrimido[4′,5′-3,4]pyrrolo[1,2-a]quinoxaline-8,10-(7H,9H)-dione] was tested, and the inhibition at 5 µM [1] was 21% and the inhibition at 25 µM [2] was 57%.
With `Cc1ccc(C2Nc3ccccc3-n3c(-c4ccc(Cl)cc4)c4c(=O)n(C)c(=O)n(C)c4c32)o1` (centres unmarked) [PPQ-111, 7,9-Dimethyl-11-(4-cholophenyl)-6-(5-methylfuran-2-yl)-5,6-dihydro-pyrimido[4′,5′-3,4]pyrrolo[1,2-a]quinoxaline-8,10-(7H,9H)-dione] the inhibition at 5 µM [1] was 31% and the inhibition at 25 µM [2] was 75%.
`Cn1c(=O)c2c(-c3ccccc3)n3c(c2n(C)c1=O)C(c1ccco1)Nc1ccccc1-3` (centres unmarked) [PPQ-112, 7,9-Dimethyl-11-phenyl-6-(5-furan-2-yl)-5,6-dihydro-pyrimido[4′,5′-3,4]pyrrolo[1,2-a]quinoxaline-8,10-(7H,9H)-dione] showed an inhibition at 5 µM [1] of 11% and an inhibition at 25 µM [2] of 54%.
For `Cn1c(=O)c2c(-c3ccccc3)n3c(c2n(C)c1=O)C(c1cccs1)Nc1ccccc1-3` (centres unmarked) [PPQ-113, 7,9-Dimethyl-11-phenyl-6-(thienyl-2-yl)-5,6-dihydro-pyrimido[4′,5′-3,4]pyrrolo[1,2-a]quinoxaline-8,10-(7H,9H)-dione], the inhibition at 5 µM [1] was 34% and the inhibition at 25 µM [2] was 77%.
With `Cc1cccc(-c2c3c(=O)n(C)c(=O)n(C)c3c3n2-c2ccccc2NC3c2cccs2)c1` (centres unmarked) [PPQ-114, 7,9-Dimethyl-11-(3-methylphenyl)-6-(thienyl-2-yl)-5,6-dihydro-pyrimido[4′,5′-3,4]pyrrolo[1,2-a]quinoxaline-8,10-(7H,9H)-dione] the inhibition at 5 µM [1] was 29% and the inhibition at 25 µM [2] was 79%.
`Cc1cc2c(cc1C)-n1c(-c3ccccc3)c3c(=O)n(C)c(=O)n(C)c3c1C(c1cccs1)N2` (centres unmarked) [PPQ-115, 2,3,7,9-Tetramethyl-11-phenyl-6-(thienyl-2-yl)-5,6-dihydro-pyrimido[4′,5′-3,4]pyrrolo[1,2-a]quinoxaline-8,10-(7H,9H)-dione] gave an inhibition at 5 µM [1] of 14% and an inhibition at 25 µM [2] of 61%.
`Cn1c(=O)c2c(-c3ccccc3F)n3c(c2n(C)c1=O)C(c1cccs1)Nc1ccccc1-3` (centres unmarked) [PPQ-116, 7,9-Dimethyl-11-(2-fluorophenyl)-6-(thienyl-2-yl)-5,6-dihydro-pyrimido[4′,5′-3,4]pyrrolo[1,2-a]quinoxaline-8,10-(7H,9H )-dione] was tested, and the inhibition at 5 µM [1] was 47% and the inhibition at 25 µM [2] was 76%.
`Cc1ccccc1-c1c2c(=O)n(C)c(=O)n(C)c2c2n1-c1ccccc1NC2c1cccs1` (centres unmarked) [PPQ-117, 7,9-Dimethyl-11-(2-methylphenyl)-6-(thienyl-2-yl)-5,6-dihydro-pyrimido[4′,5′-3,4]pyrrolo[1,2-a]quinoxaline-8,10-(7H,9H)-dione] gave an inhibition at 5 µM [1] of 19% and an inhibition at 25 µM [2] of 67%.
With `Cn1c(=O)c2c(-c3ccccc3)n3c(c2n(C)c1=O)C(c1cccc(F)c1F)Nc1ccccc1-3` (centres unmarked) [PPQ-201, 7,9-Dimethyl-11-phenyl-6-(2,3-difluorophenyl)-5,6-dihydro-pyrimido[4′,5′-3,4]pyrrolo[1,2-a]quinoxaline-8,10-(7H,9H)-dione] the inhibition at 5 µM [3] was 72%, the inhibition at 25 µM [4] was 93% and the inhibition at 5 µM [1] was 72%. The inhibition at 25 µM [2] was 93% and the IC50 was 1200 nM.

From patent US8609661B2, “Pyrimido-pyrrolo-quinoxalinedione inhibitors of cystic fibrosis transmembrane conductance regulator protein and uses therefor” (The Regents of the University of California, priority 2009, dated 2013)
